Among the test systems are CCRF-CEM leukemia; 786-0 renal; HOP-62 NSCLC; SK-MEL-28 melanoma; COLO 205 colon; CAKI-1 renal; SK-MEL-5 melanoma; NCI-H522 lung; SK-OV-3 ovarian; HOP-92 NSCLC.
Test in all cases: growth of human tumour cells (NCI), 48 h

Data on eleven compounds can be found in PubChem BioAssay (NCI).

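Results reflect a 48-hour exposure of cells in 96-well plates to compound at five concentrations. GI50: concentration for 50% inhibition of growth. TGI: concentration producing complete growth inhibition.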

For `CCN1C(=O)N(CC)C2C1NC(=S)N2/N=C/C=C/c1ccccc1` (stereo not given), the GI50 is 0.128 µM in the experiment on CCRF-CEM leukemia; 0.158 µM with 786-0 renal; 1.91 µM in the experiment with SK-MEL-28 melanoma; 0.213 µM in the experiment with COLO 205 colon; 0.0719 µM in the experiment with CAKI-1 renal; 0.145 µM in the experiment on SK-MEL-5 melanoma. For the same compound, the GI50 in the experiment on NCI-H522 lung is 0.0486 µM; with SK-OV-3 ovarian, 0.494 µM. Further, the TGI in the experiment with CCRF-CEM leukemia was above 100 µM; in the experiment on 786-0 renal, above 100 µM; in the experiment on HOP-62 NSCLC it was above 100 µM; in the experiment on SK-MEL-28 melanoma, above 100 µM; in the experiment on COLO 205 colon, 5.44 µM; in the experiment with CAKI-1 renal, above 100 µM. In addition, the TGI with SK-MEL-5 melanoma was 11.3 µM; with NCI-H522 lung it was 4.45 µM; in the experiment on SK-OV-3 ovarian it was above 100 µM.
`CCCCCCCCCCCCCCCC(=O)OCC1OC(n2cc(F)c(=O)[nH]c2=O)C(NC(=O)OCc2ccccc2)C(O)C1O` (stereo not given): the TGI in the experiment with HOP-92 NSCLC was determined as 31.5 µM; in the experiment on CCRF-CEM leukemia, 30 µM; with 786-0 renal, 36.2 µM; with COLO 205 colon, 34 µM; in the experiment with CAKI-1 renal, 33.8 µM; with SK-MEL-5 melanoma, 36.1 µM. This compound also came in with a TGI with SK-OV-3 ovarian of 66 µM.
`COC(=O)[C@]12CC[C@@H](C)[C@H](C)[C@@H]1C1=CC[C@@H]3[C@@]4(C)C(C=O)=C[C@@](C)(COS(C)(=O)=O)C4=CC[C@@]3(C)[C@]1(C)CC2`: the GI50 in the experiment with HOP-92 NSCLC is 0.197 µM; with CCRF-CEM leukemia, 0.324 µM; in the experiment with 786-0 renal, 0.189 µM; in the experiment with HOP-62 NSCLC it was 0.303 µM; in the experiment on SK-MEL-28 melanoma it was 0.198 µM; with COLO 205 colon, 0.223 µM. The GI50 with SK-MEL-5 melanoma was 0.175 µM; in the experiment with NCI-H522 lung, 0.178 µM; in the experiment on SK-OV-3 ovarian, 0.667 µM. Moreover, the TGI with HOP-92 NSCLC was 0.55 µM; in the experiment on CCRF-CEM leukemia, 1.47 µM; in the experiment on 786-0 renal, 0.415 µM; with HOP-62 NSCLC it was 1.17 µM; in the experiment on SK-MEL-28 melanoma, 0.415 µM; with COLO 205 colon, 0.454 µM. For the same compound, the figures for the TGI in the experiment with SK-MEL-5 melanoma, in the experiment on NCI-H522 lung and with SK-OV-3 ovarian were 0.333 µM, 0.371 µM and 2.92 µM, respectively.
Consider `C[C@]12CCc3nc(Nc4ccc(O)cc4)sc3C1=CC[C@@H]1[C@@H]2CC[C@]2(C)/C(=N/NC(N)=S)CC[C@@H]12`, for which the GI50 is 1.71 µM with HOP-92 NSCLC; 0.629 µM in the experiment with CCRF-CEM leukemia; 1.64 µM in the experiment on 786-0 renal; 1.7 µM with HOP-62 NSCLC; 1.51 µM in the experiment on SK-MEL-28 melanoma; 1.56 µM in the experiment with COLO 205 colon. Further, the GI50 in the experiment with CAKI-1 renal was 1.59 µM; in the experiment on SK-MEL-5 melanoma, 1.66 µM; in the experiment with SK-OV-3 ovarian, 1.62 µM. In addition, the TGI in the experiment with HOP-92 NSCLC was 4.2 µM; in the experiment with CCRF-CEM leukemia it was above 100 µM; with 786-0 renal it was 3.09 µM; in the experiment on HOP-62 NSCLC, 4.21 µM; with SK-MEL-28 melanoma, 3.4 µM; in the experiment on COLO 205 colon, 3.39 µM. Moreover, the TGI in the experiment on CAKI-1 renal turned out to be 3.4 µM; in the experiment on SK-MEL-5 melanoma it was 3.14 µM; with SK-OV-3 ovarian it was 3.25 µM.
`CCOC(=O)c1cc(C(=O)c2ccc(OC)c(OC)c2)n2c1ccc1ccc3cccnc3c12`: the GI50 is 6.78 µM in the experiment with HOP-92 NSCLC; 3.13 µM with CCRF-CEM leukemia; 2.34 µM in the experiment with 786-0 renal; 3.78 µM in the experiment with HOP-62 NSCLC; 3.7 µM in the experiment with SK-MEL-28 melanoma; 0.836 µM in the experiment on SK-MEL-5 melanoma. For the same compound, the GI50 in the experiment on NCI-H522 lung was 0.611 µM; with SK-OV-3 ovarian, 4.02 µM. The TGI with HOP-92 NSCLC is above 100 µM; with CCRF-CEM leukemia, above 100 µM; with 786-0 renal, above 100 µM; in the experiment on HOP-62 NSCLC it was 81.6 µM; with SK-MEL-28 melanoma, above 100 µM; in the experiment on SK-MEL-5 melanoma it was 37.7 µM. Besides, the TGI in the experiment with NCI-H522 lung and with SK-OV-3 ovarian was above 100 µM each time.
As to `CC1CCCP(=O)(c2ccccc2)CCC1` (stereo not given), the TGI with CCRF-CEM leukemia, with 786-0 renal, with HOP-62 NSCLC, with SK-MEL-28 melanoma, in the experiment with COLO 205 colon and with CAKI-1 renal was above 100 µM throughout. Moreover, the TGI with SK-MEL-5 melanoma and with SK-OV-3 ovarian was above 100 µM in each case.
In the case of `CCc1c(OC(C)=O)c2c(NC3OC(COC(C)=O)C(OC(C)=O)C(OC(C)=O)C3OC(C)=O)nc(SC)nc2oc1=O` (stereo not given), the TGI in the experiment with HOP-92 NSCLC, with CCRF-CEM leukemia, in the experiment on 786-0 renal, in the experiment with HOP-62 NSCLC, in the experiment on COLO 205 colon and in the experiment with CAKI-1 renal was above 100 µM in each case. The TGI in the experiment with SK-MEL-5 melanoma and in the experiment on SK-OV-3 ovarian was above 100 µM each time.
On to `CS(=O)(=O)OCCN1CCN(C(=O)c2ccc(Cl)c3c(Nc4ccc(S(=O)(=O)N=C(N)N)cc4)c4ccccc4nc23)CC1`, for which the TGI in the experiment on HOP-92 NSCLC, in the experiment on CCRF-CEM leukemia, in the experiment with 786-0 renal, in the experiment with HOP-62 NSCLC, in the experiment on SK-MEL-28 melanoma and in the experiment with COLO 205 colon was above 100 µM in each case. The TGI with CAKI-1 renal, in the experiment with SK-MEL-5 melanoma and in the experiment on SK-OV-3 ovarian was above 100 µM throughout.
`C1CN2CCO[SiH](O1)OCC2`: the TGI in the experiment on CCRF-CEM leukemia, in the experiment on 786-0 renal, in the experiment on SK-MEL-28 melanoma, in the experiment on COLO 205 colon, with CAKI-1 renal and in the experiment with SK-MEL-5 melanoma was above 100 µM in each case. Further, the TGI with NCI-H522 lung and in the experiment with SK-OV-3 ovarian was above 100 µM each time.
Regarding `O=C(O)c1ccccc1C(=O)c1ccco1`, the TGI in the experiment with HOP-92 NSCLC, with CCRF-CEM leukemia, in the experiment on 786-0 renal, in the experiment with HOP-62 NSCLC, in the experiment with SK-MEL-28 melanoma and in the experiment with COLO 205 colon was above 100 µM each time. Also, the TGI in the experiment with CAKI-1 renal, in the experiment with SK-MEL-5 melanoma and in the experiment with NCI-H522 lung was above 100 µM in each case.
Consider `CCOC(=O)C1=C(C)N(NC(N)=O)C2(N)N(NC(N)=O)C(C)=C(C(=O)OCC)C12C#N` (stereo not given), for which the TGI in the experiment with 786-0 renal, with HOP-62 NSCLC, with SK-MEL-28 melanoma, with CAKI-1 renal, with SK-MEL-5 melanoma and in the experiment with NCI-H522 lung was above 100 µM each time. Besides, the TGI in the experiment on SK-OV-3 ovarian was above 100 µM.
